One molecule from PMC7438732, “The H^+-Translocating Inorganic Pyrophosphatase From Arabidopsis thaliana Is More Sensitive to Sodium Than Its Na^+-Translocating Counterpart From Methanosarcina mazei” (Frontiers in Plant Science, 2020) can be followed below.

One assay deals with T1, MVP (Methanosarcina mazei, UniProt Q8PYZ8).
T1 construct: gene hppA1; InvGFPMVP: N-terminal signal peptide of yeast Suc2p + yEGFP + MVP; stripped microsomal membranes of S. cerevisiae YPC6; homodimer
Nature of the assay: colorimetric orthophosphate release; fit of MWC-derived Equation […]. It is filed as biochemical. The conditions noted are these: read-out: KR.

In a further assay the target is T2, AVP1 (Arabidopsis thaliana, UniProt P31414).
T2 construct: InvGFPAVP1: N-terminal signal peptide of yeast Suc2p + yEGFP + AVP1; stripped microsomal membranes of S. cerevisiae YPC6; homodimer
T2 sequence (P31414 1-770): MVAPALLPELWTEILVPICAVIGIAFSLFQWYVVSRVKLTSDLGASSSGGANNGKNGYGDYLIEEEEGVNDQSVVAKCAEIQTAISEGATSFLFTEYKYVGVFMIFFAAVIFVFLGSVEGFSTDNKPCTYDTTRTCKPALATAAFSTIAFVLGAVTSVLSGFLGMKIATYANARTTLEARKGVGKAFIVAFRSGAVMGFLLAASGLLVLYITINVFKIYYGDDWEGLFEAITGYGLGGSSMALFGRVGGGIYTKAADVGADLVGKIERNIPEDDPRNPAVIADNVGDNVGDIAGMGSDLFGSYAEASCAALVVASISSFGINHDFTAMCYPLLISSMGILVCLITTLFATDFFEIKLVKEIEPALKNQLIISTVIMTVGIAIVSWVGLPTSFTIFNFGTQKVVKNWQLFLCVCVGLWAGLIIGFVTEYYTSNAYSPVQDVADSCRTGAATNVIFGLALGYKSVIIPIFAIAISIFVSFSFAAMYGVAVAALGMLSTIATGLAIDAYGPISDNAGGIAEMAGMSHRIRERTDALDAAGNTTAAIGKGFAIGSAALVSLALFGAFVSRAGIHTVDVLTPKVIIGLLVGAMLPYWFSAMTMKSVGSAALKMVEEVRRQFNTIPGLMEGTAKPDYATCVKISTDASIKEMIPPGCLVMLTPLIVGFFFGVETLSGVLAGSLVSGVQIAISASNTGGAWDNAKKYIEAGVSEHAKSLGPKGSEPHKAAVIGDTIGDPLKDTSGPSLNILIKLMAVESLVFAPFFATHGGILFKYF
The description is as above. To be noted: read-out: KR. It is filed as biochemical.

T1 sequence (Q8PYZ8 whole entry): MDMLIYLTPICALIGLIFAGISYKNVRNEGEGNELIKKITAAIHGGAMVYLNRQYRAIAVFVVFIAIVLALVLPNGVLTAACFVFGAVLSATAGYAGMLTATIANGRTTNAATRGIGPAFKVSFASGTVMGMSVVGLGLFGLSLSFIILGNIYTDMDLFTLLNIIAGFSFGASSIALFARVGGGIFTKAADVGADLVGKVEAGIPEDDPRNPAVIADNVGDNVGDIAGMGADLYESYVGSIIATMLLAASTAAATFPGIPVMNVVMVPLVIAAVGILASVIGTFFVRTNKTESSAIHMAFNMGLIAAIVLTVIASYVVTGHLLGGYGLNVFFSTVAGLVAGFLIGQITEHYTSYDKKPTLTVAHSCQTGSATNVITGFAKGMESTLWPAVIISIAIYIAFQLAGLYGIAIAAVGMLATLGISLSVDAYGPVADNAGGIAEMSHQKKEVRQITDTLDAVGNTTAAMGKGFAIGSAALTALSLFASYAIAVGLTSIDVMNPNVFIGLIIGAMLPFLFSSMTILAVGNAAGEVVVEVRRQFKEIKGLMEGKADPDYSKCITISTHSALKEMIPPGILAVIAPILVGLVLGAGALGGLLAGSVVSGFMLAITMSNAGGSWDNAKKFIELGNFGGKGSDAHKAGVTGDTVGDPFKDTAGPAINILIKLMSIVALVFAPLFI

For `O=P(O)(O)OP(=O)(O)O` [Mg2PPi], the Kd on MVP is 62 ± 8 µM; on AVP1, 84 ± 9 µM.
